Test results published in patent US6403651B1, “Mediation of circadian rhythms” (Luminis Pty Limited, priority 1997, dated 2002).

Experiments:
[1] = biological target: T1, 5-HT2c receptors (Homo sapiens, UniProt P28335); conditions: ritanserin versus ketanserin, stated as known; cited from earlier work
T1 sequence (P28335 33-458): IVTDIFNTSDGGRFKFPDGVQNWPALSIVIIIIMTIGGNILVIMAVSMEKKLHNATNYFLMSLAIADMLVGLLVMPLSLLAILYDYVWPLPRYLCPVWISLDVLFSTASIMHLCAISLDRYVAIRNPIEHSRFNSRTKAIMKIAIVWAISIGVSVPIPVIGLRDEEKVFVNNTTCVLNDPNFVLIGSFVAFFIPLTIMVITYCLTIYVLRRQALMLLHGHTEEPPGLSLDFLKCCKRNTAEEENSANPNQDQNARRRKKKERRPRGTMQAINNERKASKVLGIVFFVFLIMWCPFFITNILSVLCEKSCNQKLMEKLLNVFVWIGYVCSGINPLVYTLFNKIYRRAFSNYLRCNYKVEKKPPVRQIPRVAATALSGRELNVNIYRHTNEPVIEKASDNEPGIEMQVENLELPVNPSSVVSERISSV

[2] = system: light pulse induced phase delay in aMT.6S onset; experiment: Effect of serotonin antagonists on the melatonin response to a light pulse; format: in vivo, rat; conditions: metergoline 15 mg/kg or ritanserin 3 mg/kg at CT17.5, light 2 lux/1 minute at CT18
Method: Male albino wistar rats (100 g, n=5-10) were housed in metabolism cages in lightproof environment chambers in 12 hours of light followed by 12 hours of darkness, designated 12L:12D. After 3-4 days acclimation to a liquid diet (Osmolite HN) hourly urine collections commenced. The general experimental design was: Melatonin production was monitored by the urinary excretion of 6-sulphatoxymelatonin (aMT.6S), determined by radioimmunoassay. The time of onset of metabolite excretion was defined as the time of day that the excretion rate exceeded 20 pmol/h. To determine the effects of the serotonin antagonist, metergoline (15 mg/kg), ritanserin (3 mg/kg) and LY-53,857 (3 mg/kg) on the melatonin response to a light pulse, the drugs were administered at CT17.5. At CT18, a 2 lux light pulse was given for one minute. Using similar methodology the effects on c-fos induction in the SCN were determined.

[3] = system: DOI induced phase delay in melatonin production; experiment: Effects of serotonin antagonists on the melatonin response to DOI; format: in vivo, rat; conditions: antagonist 0.07 μmole/kg 30 minutes prior to DOI (1.4 μmole/kg) at CT18
Method: (§1) Male albino wistar rats (100 g, n=5-10) were housed in metabolism cages in lightproof environment chambers in 12 hours of light followed by 12 hours of darkness, designated 12L:12D. After 3-4 days acclimation to a liquid diet (Osmolite HN) hourly urine collections commenced. The general experimental design was:
(§2) Melatonin production was monitored by the urinary excretion of 6-sulphatoxymelatonin (aMT.6S), determined by radioimmunoassay. The time of onset of metabolite excretion was defined as the time of day that the excretion rate exceeded 20 pmol/h.
The effects of the serotonin antagonists ritanserin and ketanserin on the melatonin response to DOI was determined. Both drugs were administered in doses of 0.7, 0.28 and 0.07 μmole/kg, 30 minutes prior to DOI (1.4 μmole/kg; 0.5 mg/kg) at CT 18; In addition, ritanserin (6.3 μmole/kg) and ketanserin (18 μmole/kg) were administered 30 minutes prior to saline injection at CT 18. Both antagonists were dissolved in DMSO and injected in a volume of 200 μl.

[4] = system: DOI induced c-Fos in the rat SCN; experiment: Effects of antagonists on DOI induced c-Fos in the SCN; format: in vivo
Method: As a check on the specificity of the response (SCN versus direct pineal effects) experiments were also conducted to monitor c-Fos induction in the SCN in response to the treatments. Animals were sacrificed by decapitation 2 hours after treatments. Brains were removed immediately and fixed by immersion in a 4% solution of paraformaldehyde in 0.1 M buffer (pH 7.4) at room temperature. After approximately 30 hours in the fixative solution at room temperature, the brains were briefly rinsed in phosphate buffered saline (PBS) and 70 μm coronal sections were obtained on a microtome. Free floating sections were permeabilised in a 0.3% solution of Triton X-100 in PBS at 4° C. overnight. […] The immunopositive cells were quantified using a computerised image analysis system.
To determine the effects of the antagonists on c-Fos induction in the SCN, ritanserin and ketanserin were injected in doses of 1.4, 0.7 and 0.14 μmole/kg at ZT 17.5. […] The response to ritanserin (6.3 μmole/kg) and ketanserin (18 μmole/kg) administered 30 minutes prior to saline injection at CT 18 was also determined.

[5] = system: core body temperature rhythm; experiment: Core body temperature rhythm studies; format: in vivo, rat; conditions: DOI 0.5 mg/kg subcutaneously at CT18, rats
Method: Groups of 5 rats were implanted with temperature transmitters under 3% halothane/oxygen anaesthesia and kept in individual cages on a 12L: 12D photoperiod. Five days after implanting the transmitters, the lights were turned off at the normal time (ZT12) and remained off for 5 days. The animals were injected subcutaneously with either DOI (0.5 mg/kg) or saline vehicle at CT18 (ie 30 hours after last lights off). The temperature was sampled at 10 minute intervals. Five days after the drug treatment the animals were re-entrained to the LD cycle for 8 days and either exposed to a 5 minute/20 lux light pulse 30 hours after re-initiation of constant darkness or left untreated. To determine any delays in the temperature rhythm, the time of the day that the temperature dropped below the group daily mean (37.4° C.) was calculated and the mean delay±SEM determined.

[6] = system: melatonin production (urinary aMT.6S excretion); experiment: 6-Sulphatoxymelatonin rhythmicity after agonist administration at CT18; format: in vivo, rat; conditions: DOI 0.5 mg/kg (1.4 μmole/kg) at CT18, rats in continuous darkness
Method: as §1
Night 1: Control collection-lights remained off from lights out for the remainder of the experiment.
Night 2: Drug administration or light pulses administered at CT 18, i.e., 6 hours after the subjective lights out. Urine collections were maintained throughout the subjective night.
Nights 3 & 4: Urine collections continued to determine any entraining effects of the stimuli.
as §2
Two lighting conditions were used to investigate the effects of drugs on SCN/pineal gland function; animals held in a light: dark cycle (L:D; Type VI method of Aschoff) and animals acutely transferred to continuous darkness (DD; Type II method of Aschoff) [Aschoff J. Response curves in circadian periodicity. In Aschoff J., ed. Circadian Clocks. Amsterdam: North Holland Publishing, 1965:95-111]. […]

Cc1nc2sccn2c(=O)c1CCN1CCC(=C(c2ccc(F)cc2)c2ccc(F)cc2)CC1 [ritanserin]
affinity for 5-HT2c receptors relative to ketanserin [1]: 10 fold | block of the phase delay in aMT.6S onset induced by the light pulse [2]: failure of the antagonists to block the phase delay | effect on DOI induced phase delay in melatonin production [3]: inhibits | inhibition of the increase in appearance of c-Fos caused by a 5-HT2c high affinity compound ([4]; comparison of ritanserin with ketanserin pre-treatment): greater effect than ketanserin

COc1cc(CC(C)N)c(OC)cc1I (racemic) [DOI, (+/−)-1-(4-iodo-2,5-dimethoxy-phenyl)-2-aminopropane]
morning decline in body temperature [5]: significantly delayed | melatonin metabolite (aMT.6S) excretion immediately following injection [6]: acute decrease

CN1C[C@H](CNC(=O)OCc2ccccc2)C[C@@H]2c3cccc4c3c(cn4C)C[C@H]21 [metergoline]
block of the phase delay in aMT.6S onset induced by the light pulse [2]: failure of the antagonists to block the phase delay

O=C(c1ccc(F)cc1)C1CCN(CCn2c(=O)[nH]c3ccccc3c2=O)CC1 [ketanserin]
effect on DOI induced phase delay in melatonin production [3]: ineffective | number of cells positive for c-Fos per unilateral SCN after DOI ([4]; antagonist 0.7 μmole/kg 30 minutes before DOI (1.4 μmole/kg)): significantly greater (P<0.05) than those observed following ritanserin 0.7 μmole/kg but not significantly different from the vehicle control
